According to US20240059658A1 (Emory University, priority 2019, published 2024):
Read-outs that look alike come from different tables or passages of the source.

Tested on: EU-1
Assay: WST cytotoxicity assay, cancer cell EU-1
Type: cell-based, human
Details: no other cell line named in the cell, read-out: Cancer cell (EU-1) cytotoxicity IC50
Procedure: This study used two ALL cell lines (EU-1 and EU-3) and three NB cell lines (NB-1643, SHEP1 and LA1-55N). All 5 cancer cell lines were established from pediatric ALL or NB patients and were well-characterized for their expression of MDM2 and p53-status, as reported previously. All cell lines were grown in standard culture medium (RPMI 1640 containing 10% FBS, 2 mmol/L L-glutamine, 50 U penicillin and 50 μg/mL streptomycin) at 37° C. in a humidified atmosphere containing 5% CO2.
The cytotoxic effect of MX 69 and MX69 analogs on cancer cells was determined using the water-soluble tetrazolium salt (WST) assay. Briefly, cells cultured in 96-well microtiter plates were treated with different concentrations of AQ-101 for a 20-h period. WST (25 μg/well) was then added and incubation continued for an additional 4 h, after which optical density (OD) was read with a microplate reader (test wavelength of 450 nm; reference wavelength of 620 nm).

Cc1ccc(S(=O)(=O)Nc2ccc3c(c2)[C@H]2OCC[C@H]2C(c2ccc(C(=O)C(C)C)cc2)N3)cc1C (stereo in doubt) [Compound 69L162, N-(4-(4-isobutyrylphenyl)-2,3,3a,4,5,9b-hexahydrofuro[3,2-c]quinolin-8-yl)-3,4-dimethylbenzenesulfonamide]
IC50 (Homo sapiens, EU-1, EU-1): > 5 µM

COC(=O)c1ccc([C@@]2(N)C[C@H](c3ccc(Cl)cc3)c3cc(S(=O)(=O)Nc4ccc(C)c(C)c4)ccc3N2)cc1 [Compound 69L14]
IC50 (Homo sapiens, EU-1, EU-1): > 50 µM

CCC(=O)c1cccc(NS(=O)(=O)c2ccc3c(c2)C(=O)CC(c2cccc(C(C)=O)c2)N3)c1 (stereo not shown) [Compound 69L126, 2-(3-acetylphenyl)-4-oxo-N-(3-propionylphenyl)-1,2,3,4-tetrahydro-quinoline-6-sulfonamide]
IC50 (Homo sapiens, EU-1, EU-1): 1.14 µM

Cc1ccc(NS(=O)(=O)c2ccc3c(c2)[C@H]2OCC[C@H]2C(c2ccc(B4OCC(C)(C)CO4)cc2)N3)cc1C (stereo partly shown) [Compound 69L17]
IC50 (Homo sapiens, EU-1, EU-1): 8.69 µM

CC(C)C(=O)c1ccc(C2Nc3ccc(S(=O)(=O)Nc4cccc(C(C)C)c4)cc3[C@H]3OCC[C@@H]23)cc1 (stereo partly shown) [Compound 69L134]
IC50 (Homo sapiens, EU-1, EU-1): 6.53 µM

CCO[C@H]1C[C@H](c2ccc(C(=O)OC)cc2)Nc2ccc(S(=O)(=O)Nc3ccc(C)c(C)c3)cc21 [Compound 69L32]
IC50 (Homo sapiens, EU-1, EU-1): 7.28 µM

CC(C)C(=O)c1cccc(C2CC(=O)c3cc(S(=O)(=O)Nc4ccc5c(c4)CCO5)ccc3N2)c1 (stereo not shown) [Compound 69L140]
IC50 (Homo sapiens, EU-1, EU-1): 0.23 µM

Cc1ccc(N(C)S(=O)(=O)c2ccc3c(c2)[C@H]2OCC[C@H]2[C@@H](c2ccc(C(=O)C(C)C)cc2)N3)cc1C (stereo in doubt) [Compound 69L132, N-(3,4-dimethylphenyl)-4-(4-isobutyrylphenyl)-N-methyl-2,3,3a,4,5,9b-hexahydrofuro[3,2-c]quinoline-8-sulfonamide]
IC50 (Homo sapiens, EU-1, EU-1): 1.57 µM

CC(=O)c1cccc(NS(=O)(=O)c2ccc3c(c2)C2NCC[C@H]2[C@@H](c2ccc(C(=O)C(C)C)cc2)N3)c1 (stereo partly drawn) [69L130 trans]
IC50 (Homo sapiens, EU-1, EU-1): > 10 µM

O=S(=O)(Nc1ccc2c(c1)CCO2)c1ccc2c(c1)C1OCC[C@H]1C(c1ccc3c(c1)CCO3)N2 (stereo partly shown) [Compound 69L128]
IC50 (Homo sapiens, EU-1, EU-1): 1.31 µM

CC(=O)c1cccc(S(=O)(=O)Nc2ccc3c(c2)[C@H]2OCC[C@H]2C(c2ccc(C(=O)C(C)C)cc2)N3)c1 (stereo partly shown) [Compound 69L163, 3-acetyl-N-(4-(4-isobutyrylphenyl)-2,3,3a,4,5,9b-hexahydrofuro[3,2-c]quinolone-8-yl)benzenesulfonamide]
IC50 (Homo sapiens, EU-1, EU-1): 2.5 µM

COC(=O)c1ccc([C@@H]2Nc3cc(Cl)c(S(=O)(=O)Nc4ccc(C)c(C)c4)cc3[C@H]3OCC[C@H]32)cc1 [Compound 69L26]
IC50 (Homo sapiens, EU-1, EU-1): > 50 µM

CC(C)c1cccc(NS(=O)(=O)c2ccc3c(c2)C(=O)CC(c2cccc(C(C)C)c2)N3)c1 (stereo not shown) [Compound 69L137]
IC50 (Homo sapiens, EU-1, EU-1): 5 µM

CC(=O)c1cccc(NS(=O)(=O)c2ccc3c(c2)C2NCC[C@H]2C(c2ccc(C(=O)C(C)C)cc2)N3)c1 (stereo partly shown) [Compound 69L130]
IC50 (Homo sapiens, EU-1, EU-1): > 10 µM

CC(=O)c1cccc(NS(=O)(=O)c2ccc3c(c2)[C@H]2OCC[C@H]2[C@H](C2CCCCC2)N3)c1 [Compound 69L144]
IC50 (Homo sapiens, EU-1, EU-1): 1.53 µM

Cc1ccc(NS(=O)(=O)c2ccc3c(c2)C2CCC[C@H]2[C@H](c2ccc(C(=O)C(C)C)cc2)N3)cc1C (stereo partly shown) [Compound 69L88]
IC50 (Homo sapiens, EU-1, EU-1): 6.97 µM

CCc1cccc(NS(=O)(=O)c2ccc3nc(-c4cccc(C(=O)C(C)C)c4)c(OC)cc3c2)c1 [Compound 69L167]
IC50 (Homo sapiens, EU-1, EU-1): 3.6 µM

CCC(=O)c1cccc(NS(=O)(=O)c2ccc3c(c2)C2OCC[C@H]2C(c2ccc4c(c2)CCO4)N3)c1 (stereo in doubt) [Compound 69L127, 4-(2,3-dihydrobenzofuran-5-yl)-N-(3-propionylphenyl)-2,3,3a,4,5,9b-hexahydrofuro[3,2-c]quinoline-8-sulfonamide]
IC50 (Homo sapiens, EU-1, EU-1): 4.8 µM

CC(=O)c1ccc([C@@H]2Nc3ccc(S(=O)(=O)Nc4ccc(C)c(C)c4)cc3C3NCC[C@H]32)cc1 (stereo partly shown) [Compound 69L50]
IC50 (Homo sapiens, EU-1, EU-1): 4.1 µM

Cc1ccc(NS(=O)(=O)c2ccc3c(c2)[C@H]2OCCC[C@H]2C(c2ccc(C(=O)O)cc2)N3)cc1C (stereo partly shown) [Compound 69L10]
IC50 (Homo sapiens, EU-1, EU-1): > 50 µM

COC(=O)c1ccc(C2Nc3ccc(S(=O)(=O)Nc4ccc(C)c(C)c4)cc3C3NCC[C@@H]23)cc1 (stereo partly shown) [Compound 69L34]
IC50 (Homo sapiens, EU-1, EU-1): 3.44 µM

Cc1ccc(NS(=O)(=O)c2cc3c(cc2Cl)N[C@@H](c2ccc(S(C)(=O)=O)cc2)[C@@H]2CC=C[C@H]32)cc1C [Compound 69L24]
IC50 (Homo sapiens, EU-1, EU-1): > 50 µM

O=S(=O)(Nc1ccc2c(c1)CCO2)c1ccc2c(c1)[C@H]1OCC[C@H]1C(c1ccccc1)N2 (stereo partly shown) [Compound 69L118]
IC50 (Homo sapiens, EU-1, EU-1): 0.15 µM

CC(C)C(=O)c1cccc(C2Nc3ccc(S(=O)(=O)Nc4cccc(C(C)O)c4)cc3C3OCC[C@@H]23)c1 (stereo partly shown) [Compound 69L122]
IC50 (Homo sapiens, EU-1, EU-1): > 10 µM

Cc1ccc(N(C)S(=O)(=O)c2ccc3c(c2)[C@H]2OCC[C@H]2C(c2ccc(C(=O)C(C)C)cc2)N3C)cc1C (stereo in doubt) [Compound 69L131, N-(3,4-dimethylphenyl)-4-(4-isobutyrylphenyl)-N,5-dimethyl-2,3,3a,4,5,9b-hexahydrofuro[3,2-c]quinoline-8-sulfonamide]
IC50 (Homo sapiens, EU-1, EU-1): 1.16 µM

Cc1ccc(NS(=O)(=O)c2ccc3c(c2)C2OCC[C@H]2[C@@H](c2ccc(C(=O)C(C)C)cc2)N3)cc1C (stereo partly shown) [Compound 69L52b]
IC50 (Homo sapiens, EU-1, EU-1): 1.4 to 1.6 µM

Cc1ccc(NS(=O)(=O)c2ccc3c(c2)C(=O)CC(c2cccc(C(=O)C(C)C)c2)N3)cc1C#N (stereo not shown) [Compound 69L156]
IC50 (Homo sapiens, EU-1, EU-1): 0.54 µM

COc1cc(NS(=O)(=O)c2ccc3c(c2)C(=O)CC(c2cccc(C(=O)C(C)C)c2)N3)ccc1C (stereo not shown) [Compound 69L160, 2-(3-isobutyrylphenyl)-N-(3-methoxy-4-methylphenyl)-4-oxo-1,2,3,4-tetrahydroquinoline-6-sulfonamide]
IC50 (Homo sapiens, EU-1, EU-1): 0.54 µM

COC(=O)c1ccc([C@@H]2Nc3ccc(S(=O)(=O)Nc4ccc(C)c(C)c4)cc3[C@H]3c4ccccc4C[C@H]32)cc1 [Compound 69L3]
IC50 (Homo sapiens, EU-1, EU-1): 18.3 µM

CC(=O)c1ccc([C@@H]2CC(O)c3cc(S(=O)(=O)Nc4ccc(C)c(C)c4)ccc3N2)cc1 (stereo partly shown) [Compound 69L47]
IC50 (Homo sapiens, EU-1, EU-1): 2.1 µM

Cc1ccc(NS(=O)(=O)c2ccc3c(c2)[C@H]2OCC[C@H]2C(c2ccc(Br)cc2)N3)cc1C (stereo partly shown) [Compound 69L8]
IC50 (Homo sapiens, EU-1, EU-1): 3.61 µM

CC(=O)c1cccc(C2CC(=O)c3cc(S(=O)(=O)Nc4ccc5c(c4)COC5)ccc3N2)c1 (stereo not shown) [Compound 69L124, 2-(3-acetylphenyl)-N-(1,3-dihydroisobenzofuran-5-yl)-4-oxo-1,2,3,4-tetrahydroquinoline-6-sulfonamide]
IC50 (Homo sapiens, EU-1, EU-1): 0.46 µM

COC(=O)c1ccc(C2Nc3c(Cl)cc(S(=O)(=O)Nc4ccc(C)c(C)c4)cc3C3OCC[C@@H]23)cc1 (stereo partly shown) [Compound 69L33]
IC50 (Homo sapiens, EU-1, EU-1): > 50 µM

CCc1cccc(NS(=O)(=O)c2ccc3c(c2)[C@H]2OCC[C@H]2C(c2ccc(C(=O)C(C)C)cc2)N3)c1 (stereo partly shown) [Compound 69L148]
IC50 (Homo sapiens, EU-1, EU-1): 2.05 µM

CCc1cccc(NS(=O)(=O)c2ccc3c(c2)C(=O)CC(c2cccc(C(=O)C(C)C)c2)N3)c1 (stereo not shown) [Compound 69L150, N-(3-ethylphenyl)-2-(3-isobutyrylphenyl)-4-oxo-1,2,3,4-tetrahydroquinoline-6-sulfonamide]
IC50 (Homo sapiens, EU-1, EU-1): 0.04 µM

Cc1cc(NS(=O)(=O)c2ccc3c(c2)C2OCC[C@H]2C(C2CCCCC2)N3)ccc1C(F)(F)F (stereo partly shown) [Compound 69L90]
IC50 (Homo sapiens, EU-1, EU-1): 3.26 µM

COC(=O)c1ccc([C@@H]2Nc3ccc(S(=O)(=O)Nc4ccc(C)c(C)c4)cc3[C@H]3OCC[C@H]32)cc1 [Compound 69L13]
IC50 (EU-1): 6.4 to 9 µM
